Test results from patent publication US10202361B2, “Pyridazinones as herbicides” (E I DU PONT DE NEMOURS AND COMPANY, priority 2014, dated 2019).
Read-outs that look alike come from different tables or passages of the source.

Legend:
Experiment in all cases: Test C pre-/postemergence greenhouse herbicide test
Format in all cases: in vivo
[1] = tested on: pigweed (Amaranthus retroflexus); details: Amaranthus retroflexus, Pigweed, read-out: Plant response rating; for pest or weed control at 62 g/ha: 62 g ai/ha; for pest or weed control at 125 g/ha: 125 g ai/ha; for pest or weed control at 250 g/ha: 250 g ai/ha
In short: (§1)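 Visual ratings, 0 = no effect, 100 = complete control, vs untreated controls at 13–15 d. Pre: seeds in loam/sand. Post: 2–18 cm plants (1–4 leaf), peat/vermiculite mix. Surfactant-containing solvent formulation; greenhouse.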

[2] = tested on: blackgrass (Alopecurus myosuroides); details: Alopecurus myosuroides, Blackgrass, read-out: Plant response rating; for pest or weed control at 31 g/ha: 31 g ai/ha; for pest or weed control at 62 g/ha: 62 g ai/ha; for pest or weed control at 125 g/ha: 125 g ai/ha; for pest or weed control at 250 g/ha: 250 g ai/ha
In short: as §1

[3] = tested on: crabgrass, Large (large crabgrass, Digitaria sanguinalis); details: Digitaria sanguinalis, Crabgrass, Large, read-out: Plant response rating; for pest or weed control at 31 g/ha: 31 g ai/ha; for pest or weed control at 62 g/ha: 62 g ai/ha; for pest or weed control at 125 g/ha: 125 g ai/ha; for pest or weed control at 250 g/ha: 250 g ai/ha
In short: as §1

soybean (Glycine max) = details: Glycine max, Soybean, read-out: Plant response rating; for plant injury at 62 g/ha: 62 g ai/ha; for plant injury at 125 g/ha: 125 g ai/ha; for plant injury at 250 g/ha: 250 g ai/ha
In short: as §1

kochia (Kochia scoparia) = details: Postemergence
In short: as §1

[4] = tested on: lambsquarters (Chenopodium album)
In short: as §1

[5] = tested on: morningglory (Ipomoea coccinea); details: Morningglory
In short: as §1

[6] = tested on: ryegrass, Italian (Italian ryegrass, Lolium multiflorum); details: Lolium multiflorum, Ryegrass, Italian, read-out: Plant response rating; for pest or weed control at 31 g/ha: 31 g ai/ha; for pest or weed control at 62 g/ha: 62 g ai/ha; for pest or weed control at 125 g/ha: 125 g ai/ha; for pest or weed control at 250 g/ha: 250 g ai/ha
In short: as §1

[7] = tested on: wheat (winter wheat, Triticum aestivum); details: Triticum aestivum, Wheat, read-out: Plant response rating; for plant injury at 62 g/ha: 62 g ai/ha; for plant injury at 125 g/ha: 125 g ai/ha; for plant injury at 250 g/ha: 250 g ai/ha
In short: as §1

[8] = tested on: oat, wild (wild oat, Avena fatua); details: Postemergence
In short: as §1

[9] = tested on: waterhemp (common waterhemp, Amaranthus rudis); details: Waterhemp
In short: as §1

[10] = tested on: ragweed (common ragweed, Ambrosia elatior); details: Ambrosia artemisiifolia, Ragweed, read-out: Plant response rating; for pest or weed control at 31 g/ha: 31 g ai/ha; for pest or weed control at 62 g/ha: 62 g ai/ha; for pest or weed control at 125 g/ha: 125 g ai/ha
In short: as §1

corn (Zea mays) = details: Zea mays, Corn, read-out: Plant response rating; for plant injury at 62 g/ha: 62 g ai/ha; for plant injury at 125 g/ha: 125 g ai/ha; for plant injury at 250 g/ha: 250 g ai/ha
In short: as §1

[11] = pre-emergence, Preemergence, 31 g ai/ha
[12] = post-emergence, Postemergence, 31 g ai/ha

`Cc1cc(=O)n(-c2ccc(C(F)(F)F)cc2)nc1Cc1ccnc(C(F)(F)F)c1` [Compound 2, 5-methyl-2-[4-(trifluoromethyl)phenyl]-6-[[2-(trifluoromethyl)-4-pyridinyl]methyl]-3(2H)-pyridazinone] showed a pest or weed control at 62 g/ha ([1]; post-emergence, Postemergence) of 55%, a pest or weed control at 125 g/ha ([1]; post-emergence, Postemergence) of 60% and a pest or weed control at 250 g/ha ([1]; post-emergence, Postemergence) of 60%. For the same compound, the pest or weed control at 31 g/ha [1, 11] was 100%, the pest or weed control at 62 g/ha ([1]; pre-emergence, Preemergence) was 100% and the pest or weed control at 125 g/ha ([1]; pre-emergence, Preemergence) was 100%. For the same compound, the pest or weed control at 250 g/ha ([1]; pre-emergence, Preemergence) was 100%, the pest or weed control at 31 g/ha ([2]; post-emergence, Postemergence) was 5% and the pest or weed control at 62 g/ha ([2]; post-emergence, Postemergence) was 5%. It also gave a pest or weed control at 125 g/ha ([2]; post-emergence, Postemergence) of 10%, a pest or weed control at 250 g/ha ([2]; post-emergence, Postemergence) of 15% and a pest or weed control at 31 g/ha ([2]; pre-emergence, Preemergence) of 10%. The pest or weed control at 62 g/ha ([2]; pre-emergence, Preemergence) was 45%, the pest or weed control at 125 g/ha ([2]; pre-emergence, Preemergence) was 90% and the pest or weed control at 250 g/ha ([2]; pre-emergence, Preemergence) was 90%. It also gave a pest or weed control at 31 g/ha ([3]; post-emergence, Postemergence) of 5%, a pest or weed control at 62 g/ha ([3]; post-emergence, Postemergence) of 5% and a pest or weed control at 125 g/ha ([3]; post-emergence, Postemergence) of 15%. It also gave a pest or weed control at 250 g/ha ([3]; post-emergence, Postemergence) of 35%, a pest or weed control at 31 g/ha ([3]; pre-emergence, Preemergence) of 75% and a pest or weed control at 62 g/ha ([3]; pre-emergence, Preemergence) of 80%. The pest or weed control at 125 g/ha ([3]; pre-emergence, Preemergence) was 100%, the pest or weed control at 250 g/ha ([3]; pre-emergence, Preemergence) was 100% and the plant injury at 31 g/ha (soybean (Glycine max); [12]) was 20%. It also gave a plant injury at 62 g/ha (soybean (Glycine max); post-emergence, Postemergence) of 30%, a plant injury at 125 g/ha (soybean (Glycine max); post-emergence, Postemergence) of 40% and a plant injury at 250 g/ha (soybean (Glycine max); post-emergence, Postemergence) of 40%. The plant injury at 62 g/ha (soybean (Glycine max); pre-emergence, Preemergence) was 25%, the plant injury at 125 g/ha (soybean (Glycine max); pre-emergence, Preemergence) was 55% and the plant injury at 250 g/ha (soybean (Glycine max); pre-emergence, Preemergence) was 60%. For the same compound, the Plant response rating (kochia (Kochia scoparia); 31 g ai/ha) was 80, the Plant response rating (kochia (Kochia scoparia); 62 g ai/ha) was 85 and the Plant response rating (kochia (Kochia scoparia); 125 g ai/ha) was 90. For the same compound, the Plant response rating (kochia (Kochia scoparia); 250 g ai/ha) was 90, the Plant response rating ([4]; Postemergence, 31 g ai/ha) was 55 and the Plant response rating ([4]; Postemergence, 62 g ai/ha) was 70. For the same compound, the Plant response rating ([4]; Postemergence, 125 g ai/ha) was 75, the Plant response rating ([4]; Postemergence, 250 g ai/ha) was 80 and the Plant response rating ([4]; Preemergence, 31 g ai/ha) was 100. The Plant response rating ([4]; Preemergence, 62 g ai/ha) was 100, the Plant response rating ([4]; Preemergence, 125 g ai/ha) was 100 and the Plant response rating ([4]; Preemergence, 250 g ai/ha) was 100. The Plant response rating ([5]; Postemergence, 31 g ai/ha) was 10, the Plant response rating ([5]; Postemergence, 125 g ai/ha) was 15 and the Plant response rating ([5]; Postemergence, 250 g ai/ha) was 15. For the same compound, the Plant response rating ([5]; Preemergence, 31 g ai/ha) was 55, the Plant response rating ([5]; Preemergence, 62 g ai/ha) was 65 and the Plant response rating ([5]; Preemergence, 125 g ai/ha) was 85. The Plant response rating ([5]; Preemergence, 250 g ai/ha) was 100, the pest or weed control at 31 g/ha ([6]; post-emergence, Postemergence) was 5% and the pest or weed control at 62 g/ha ([6]; post-emergence, Postemergence) was 5%. The pest or weed control at 125 g/ha ([6]; post-emergence, Postemergence) was 5%, the pest or weed control at 250 g/ha ([6]; post-emergence, Postemergence) was 5% and the pest or weed control at 31 g/ha ([6]; pre-emergence, Preemergence) was 5%. For the same compound, the pest or weed control at 62 g/ha ([6]; pre-emergence, Preemergence) was 15%, the pest or weed control at 125 g/ha ([6]; pre-emergence, Preemergence) was 65% and the pest or weed control at 250 g/ha ([6]; pre-emergence, Preemergence) was 85%. It also gave a plant injury at 31 g/ha [7, 12] of 5%, a plant injury at 62 g/ha ([7]; post-emergence, Postemergence) of 5% and a plant injury at 125 g/ha ([7]; post-emergence, Postemergence) of 5%. It also gave a plant injury at 250 g/ha ([7]; post-emergence, Postemergence) of 5%, a plant injury at 62 g/ha ([7]; pre-emergence, Preemergence) of 0% and a plant injury at 125 g/ha ([7]; pre-emergence, Preemergence) of 10%. It also gave a plant injury at 250 g/ha ([7]; pre-emergence, Preemergence) of 30%, a Plant response rating ([8]; 31 g ai/ha) of 5 and a Plant response rating ([8]; 62 g ai/ha) of 5. For the same compound, the Plant response rating ([8]; 125 g ai/ha) was 5, the Plant response rating ([8]; 250 g ai/ha) was 5 and the Plant response rating ([9]; Postemergence, 31 g ai/ha) was 75. The Plant response rating ([9]; Postemergence, 62 g ai/ha) was 75, the Plant response rating ([9]; Postemergence, 125 g ai/ha) was 75 and the Plant response rating ([9]; Postemergence, 250 g ai/ha) was 80. For the same compound, the Plant response rating ([9]; Preemergence, 62 g ai/ha) was 100, the Plant response rating ([9]; Preemergence, 125 g ai/ha) was 100 and the Plant response rating ([9]; Preemergence, 250 g ai/ha) was 100. It also gave a pest or weed control at 31 g/ha ([10]; post-emergence, Postemergence) of 25%, a pest or weed control at 62 g/ha ([10]; post-emergence, Postemergence) of 60% and a pest or weed control at 125 g/ha ([10]; post-emergence, Postemergence) of 60%. For the same compound, the pest or weed control at 31 g/ha ([10]; pre-emergence, Preemergence) was 15%, the pest or weed control at 62 g/ha ([10]; pre-emergence, Preemergence) was 60% and the pest or weed control at 125 g/ha ([10]; pre-emergence, Preemergence) was 60%. It also gave a pest or weed control at 250 g/ha ([10]; pre-emergence, Preemergence, 250 g ai/ha) of 60%, a plant injury at 62 g/ha (corn (Zea mays); post-emergence, Postemergence) of 20% and a plant injury at 125 g/ha (corn (Zea mays); post-emergence, Postemergence) of 20%. For the same compound, the plant injury at 250 g/ha (corn (Zea mays); post-emergence, Postemergence) was 20%, the plant injury at 31 g/ha (corn (Zea mays); [11]) was 35% and the plant injury at 62 g/ha (corn (Zea mays); pre-emergence, Preemergence) was 55%. For the same compound, the plant injury at 125 g/ha (corn (Zea mays); pre-emergence, Preemergence) was 75% and the plant injury at 250 g/ha (corn (Zea mays); pre-emergence, Preemergence) was 75%.
